According to the supplement of paper PMC10307832:

Key:
Assay in all cases: relative viability (nuclei count vs DMSO), 5 days (fraction); higher = more cells survive
Pazopanib + Olaparib = compound: Cc1ccc(Nc2nccc(N(C)c3ccc4c(C)n(C)nc4c3)n2)cc1S(N)(=O)=O [Pazopanib] + O=C(c1cc(Cc2n[nH]c(=O)c3ccccc23)ccc1F)N1CCN(C(=O)C2CC2)CC1 [Olaparib] (partner 8 µM)
Procedure, shortened: (§1)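 Lung cancer cell lines in 1536-well plates were dosed by pin tool the day after seeding, either with one drug alone or with a fixed anchor-drug dose plus five library-drug doses (not always all listed) in √10 steps. After 5 days, cells were fixed and their nuclei stained in one step (final 0.05% Triton X-100, 1% formaldehyde, 1 ug/ml Hoechst), then counted on 4× images. Relative viability is the nuclei count in treated wells divided by that in vehicle wells. Values are medians of duplicate plates.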

Ponatinib + Trametinib = compound: Cc1ccc(C(=O)Nc2ccc(CN3CCN(C)CC3)c(C(F)(F)F)c2)cc1C#Cc1cnc2cccnn12 [Ponatinib] + CC(=O)Nc1cccc(-n2c(=O)n(C3CC3)c(=O)c3c(Nc4ccc(I)cc4F)n(C)c(=O)c(C)c32)c1 [Trametinib] (partner 0.02 µM)
Procedure, shortened: as §1

Ponatinib + Luminespib = compound: Cc1ccc(C(=O)Nc2ccc(CN3CCN(C)CC3)c(C(F)(F)F)c2)cc1C#Cc1cnc2cccnn12 [Ponatinib] + CCNC(=O)c1noc(-c2cc(C(C)C)c(O)cc2O)c1-c1ccc(CN2CCOCC2)cc1 [Luminespib] (partner 0.01 µM)
Procedure, shortened: as §1

Pazopanib + Pictilisib = compound: Cc1ccc(Nc2nccc(N(C)c3ccc4c(C)n(C)nc4c3)n2)cc1S(N)(=O)=O [Pazopanib] + CS(=O)(=O)N1CCN(Cc2cc3nc(-c4cccc5[nH]ncc45)nc(N4CCOCC4)c3s2)CC1 [Pictilisib] (partner 1 µM)
Procedure, shortened: as §1

Row | Cell Line | relative viability (Pazopanib + Olaparib; first compound 0.01 µM) | relative viability (Pazopanib + Olaparib; first compound 0.03162 µM) | relative viability (Pazopanib + Olaparib; first compound 0.1 µM) | relative viability (Pazopanib + Olaparib; first compound 0.3162 µM) | relative viability (Pazopanib + Olaparib; first compound 1 µM) | relative viability (Ponatinib + Trametinib; first compound 0.002 µM) | relative viability (Ponatinib + Trametinib; first compound 0.006325 µM) | relative viability (Ponatinib + Trametinib; first compound 0.06325 µM) | relative viability (Ponatinib + Trametinib; first compound 0.2 µM) | relative viability (Ponatinib + Luminespib; first compound 0.002 µM) | relative viability (Ponatinib + Luminespib; first compound 0.006325 µM) | relative viability (Ponatinib + Luminespib; first compound 0.06325 µM) | relative viability (Ponatinib + Luminespib; first compound 0.2 µM) | relative viability (Pazopanib + Pictilisib; first compound 0.01 µM) | relative viability (Pazopanib + Pictilisib; first compound 0.03162 µM) | relative viability (Pazopanib + Pictilisib; first compound 0.1 µM) | relative viability (Pazopanib + Pictilisib; first compound 0.3162 µM) | relative viability (Pazopanib + Pictilisib; first compound 1 µM)
1 | 201T | 0.863 | 0.865 | 0.85 | 0.825 | 0.822 | 0.705 | 0.733 | 0.762 | 0.693 | 1.1 | 1.07 | 1.08 | 0.966 | 0.602 | 0.603 | 0.709 | 0.742 | 0.695
2 | A549 | 0.248 | 0.301 | 0.283 | 0.297 | 0.36 |  |  |  |  |  |  |  |  | 0.494 | 0.477 | 0.63 | 0.589 | 0.423
3 | A-427 | 0.729 | 0.8 | 0.758 | 0.812 | 0.791 | 0.79 | 0.732 | 0.719 | 0.531 | 0.908 | 0.799 | 1.08 | 0.75 | 0.612 | 0.705 | 0.692 | 0.746 | 0.782
4 | ABC-1 | 1.01 | 1.15 | 0.959 | 0.946 | 0.782 |  |  |  |  | 0.558 | 0.42 | 0.745 | 0.239 | 0.635 | 0.839 | 0.82 | 0.799 | 0.86
5 | BEN | 1.06 | 1.29 | 1.11 | 0.943 | 0.931 | 1.02 | 0.967 | 0.982 | 0.768 | 0.259 | 0.296 | 0.24 | 0.576 | 0.514 | 0.621 | 0.515 | 0.567 | 0.488
6 | CAL-12T | 0.854 | 0.783 | 0.694 | 0.74 | 0.707 | 0.315 | 0.311 | 0.332 | 0.239 | 0.37 | 0.505 | 0.436 | 0.447 | 0.335 | 0.461 | 0.527 | 0.401 | 0.423
7 | COR-L23 | 0.35 | 0.332 | 0.366 | 0.299 | 0.34 | 0.526 | 0.593 | 0.372 | 0.387 | 0.658 | 0.618 | 0.669 | 0.513 | 0.649 | 0.771 | 0.805 | 0.962 | 0.881
8 | COR-L 105 | 0.699 | 0.649 | 0.667 | 0.584 | 0.745 | 0.429 | 0.479 | 0.473 | 0.457 | 0.651 | 0.931 | 0.845 | 0.895 | 0.4 | 0.473 | 0.411 | 0.443 | 0.417
9 | Calu-6 | 0.601 | 0.559 | 0.589 | 0.579 | 0.5 |  |  |  |  |  |  |  |  | 0.874 | 1.01 | 0.993 | 0.849 | 0.877
10 | ChaGo-K-1 | 0.473 | 0.447 | 0.413 | 0.413 | 0.357 | 0.863 | 0.907 | 0.914 | 0.815 | 0.562 | 0.651 | 0.571 | 0.553 | 0.543 | 0.876 | 0.632 | 0.613 | 0.759
11 | EBC-1 | 0.696 | 0.754 | 0.696 | 0.751 | 0.752 |  |  |  |  |  |  |  |  | 0.402 | 0.508 | 0.376 | 0.412 | 0.394
12 | EKVX | 0.766 | 1.05 | 0.863 | 0.867 | 0.911 | 0.328 | 0.338 | 0.424 | 0.362 | 0.941 | 0.959 | 0.954 | 0.871 | 0.411 | 0.402 | 0.415 | 0.507 | 0.517
13 | EMC-BAC-2 |  | 0.476 | 0.457 | 0.43 | 0.43 | 0.875 | 0.897 | 0.91 | 0.718 | 1.06 | 1.15 | 1.28 | 1.07 | 0.457 | 0.576 | 0.623 | 0.579 | 0.604
14 | EPLC-272H | 0.87 | 0.792 | 1.06 | 0.944 | 0.845 | 0.271 | 0.309 | 0.345 | 0.22 | 0.323 | 0.255 | 0.521 | 0.199 | 0.264 | 0.335 | 0.27 | 0.35 | 0.274
15 | H3255 | 0.583 | 0.541 | 0.627 | 0.564 | 0.564 | 0.62 | 0.655 | 0.607 | 0.554 | 0.862 | 0.887 | 0.805 | 0.929 | 0.452 | 0.454 | 0.427 | 0.417 | 0.582
16 | HARA | 0.938 | 0.778 | 0.958 | 1.26 | 0.795 | 0.633 | 0.581 | 0.633 | 0.443 | 0.683 | 0.948 | 0.749 | 0.682 | 0.26 | 0.332 | 0.493 | 0.479 | 0.343
17 | HCC-15 | 0.689 | 0.671 | 0.697 | 0.723 | 0.672 | 0.348 | 0.381 | 0.446 | 0.338 | 0.306 | 0.22 | 0.661 | 0.212 | 0.703 | 0.773 | 0.718 | 0.857 | 1.06
18 | HCC-44 | 0.991 | 0.995 | 1.02 | 0.995 | 1 | 1 | 1.02 | 1.05 | 1.06 | 0.96 | 0.976 | 1.22 | 1.01 | 0.421 | 0.599 | 0.659 | 0.521 | 0.673
19 | HCC-78 |  | 0.87 | 0.778 | 0.906 | 0.995 | 0.684 | 0.673 | 0.808 | 0.638 |  |  |  |  | 0.2 | 0.216 | 0.194 | 0.214 | 0.202
20 | HCC-366 | 0.31 | 0.357 | 0.396 | 0.396 | 0.35 | 0.32 | 0.417 | 0.428 | 0.273 |  |  |  |  | 0.0942 | 0.155 | 0.116 | 0.164 | 0.159
